Targets include BLK (UniProt P51451); UniProt P49841; PXMP2 (UniProt Q9NR77); UniProt Q9Y6E0; UniProt P28482; CLK3 (UniProt P49761); CASP6 (UniProt P55212); MAST3 (UniProt O60307); SLK (UniProt Q9H2G2); UniProt Q92918; CDK2 (UniProt P24941); UniProt P49840; CAMK1D (UniProt Q8IU85); CDK4 (UniProt P11802).
Holding throughout (assay): pIC50, competition of probe 3 labelling in live cells
What all share (settings): cell material: Jurkat cells

The next assay deals with T1, UniProt Q13188.
T1 sequence (whole entry): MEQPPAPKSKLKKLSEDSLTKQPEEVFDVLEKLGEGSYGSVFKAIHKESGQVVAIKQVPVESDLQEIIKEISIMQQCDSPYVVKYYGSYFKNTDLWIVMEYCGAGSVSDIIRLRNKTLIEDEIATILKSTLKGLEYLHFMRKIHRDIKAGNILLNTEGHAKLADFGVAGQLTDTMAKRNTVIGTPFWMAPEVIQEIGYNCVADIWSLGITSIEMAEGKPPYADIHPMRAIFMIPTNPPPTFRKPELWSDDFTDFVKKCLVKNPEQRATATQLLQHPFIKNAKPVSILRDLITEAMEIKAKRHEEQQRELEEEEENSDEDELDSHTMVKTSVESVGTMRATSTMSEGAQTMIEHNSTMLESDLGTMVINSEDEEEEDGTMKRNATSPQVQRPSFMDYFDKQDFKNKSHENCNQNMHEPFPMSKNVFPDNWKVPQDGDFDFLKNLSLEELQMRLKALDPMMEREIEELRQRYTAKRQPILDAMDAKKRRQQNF

The next assay deals with T2, MAP4K2 (UniProt Q12851).
T2 sequence (whole entry): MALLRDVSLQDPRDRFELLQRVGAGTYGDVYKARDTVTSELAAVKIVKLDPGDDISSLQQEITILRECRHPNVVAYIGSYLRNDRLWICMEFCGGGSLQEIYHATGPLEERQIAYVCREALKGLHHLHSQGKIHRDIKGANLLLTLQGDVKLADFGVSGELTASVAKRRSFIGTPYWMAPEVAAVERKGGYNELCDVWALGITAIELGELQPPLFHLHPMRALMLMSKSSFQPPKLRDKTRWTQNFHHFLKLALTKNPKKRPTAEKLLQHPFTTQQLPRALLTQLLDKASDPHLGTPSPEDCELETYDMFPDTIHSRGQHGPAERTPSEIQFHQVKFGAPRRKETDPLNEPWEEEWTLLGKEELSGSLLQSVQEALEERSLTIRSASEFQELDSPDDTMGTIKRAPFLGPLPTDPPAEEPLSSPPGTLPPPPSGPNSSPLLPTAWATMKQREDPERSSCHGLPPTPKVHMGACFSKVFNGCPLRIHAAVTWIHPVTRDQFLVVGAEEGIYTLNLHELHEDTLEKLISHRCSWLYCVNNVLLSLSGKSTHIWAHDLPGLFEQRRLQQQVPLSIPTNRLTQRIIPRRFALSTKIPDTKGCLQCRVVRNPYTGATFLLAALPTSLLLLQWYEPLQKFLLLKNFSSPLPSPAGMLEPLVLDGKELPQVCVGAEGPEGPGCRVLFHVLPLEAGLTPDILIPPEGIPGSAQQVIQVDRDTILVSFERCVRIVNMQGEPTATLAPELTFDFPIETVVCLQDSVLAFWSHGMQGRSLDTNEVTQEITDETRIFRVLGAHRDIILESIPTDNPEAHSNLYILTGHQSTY

± gives the standard deviation of the averaged measurements.

Chain of UniProt P28482 (P28482 whole entry): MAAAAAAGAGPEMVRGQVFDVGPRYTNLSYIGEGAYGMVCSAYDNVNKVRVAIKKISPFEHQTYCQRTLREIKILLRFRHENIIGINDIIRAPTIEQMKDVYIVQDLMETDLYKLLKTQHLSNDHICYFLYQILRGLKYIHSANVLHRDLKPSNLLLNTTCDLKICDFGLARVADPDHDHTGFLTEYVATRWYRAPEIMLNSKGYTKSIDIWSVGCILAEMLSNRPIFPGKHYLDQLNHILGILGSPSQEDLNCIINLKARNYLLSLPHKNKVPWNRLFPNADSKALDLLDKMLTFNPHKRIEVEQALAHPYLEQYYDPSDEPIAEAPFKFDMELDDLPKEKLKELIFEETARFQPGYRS
Chain of CASP6 (P55212 whole entry): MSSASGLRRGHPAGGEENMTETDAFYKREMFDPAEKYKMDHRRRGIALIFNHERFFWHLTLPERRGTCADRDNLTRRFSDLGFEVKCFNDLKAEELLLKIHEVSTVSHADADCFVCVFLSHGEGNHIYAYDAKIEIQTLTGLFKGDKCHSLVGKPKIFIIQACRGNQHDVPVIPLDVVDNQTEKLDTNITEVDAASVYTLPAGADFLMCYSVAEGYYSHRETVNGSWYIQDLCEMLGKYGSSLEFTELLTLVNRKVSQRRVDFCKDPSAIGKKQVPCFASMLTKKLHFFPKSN
Chain of UniProt P49840 (P49840 whole entry, looked up): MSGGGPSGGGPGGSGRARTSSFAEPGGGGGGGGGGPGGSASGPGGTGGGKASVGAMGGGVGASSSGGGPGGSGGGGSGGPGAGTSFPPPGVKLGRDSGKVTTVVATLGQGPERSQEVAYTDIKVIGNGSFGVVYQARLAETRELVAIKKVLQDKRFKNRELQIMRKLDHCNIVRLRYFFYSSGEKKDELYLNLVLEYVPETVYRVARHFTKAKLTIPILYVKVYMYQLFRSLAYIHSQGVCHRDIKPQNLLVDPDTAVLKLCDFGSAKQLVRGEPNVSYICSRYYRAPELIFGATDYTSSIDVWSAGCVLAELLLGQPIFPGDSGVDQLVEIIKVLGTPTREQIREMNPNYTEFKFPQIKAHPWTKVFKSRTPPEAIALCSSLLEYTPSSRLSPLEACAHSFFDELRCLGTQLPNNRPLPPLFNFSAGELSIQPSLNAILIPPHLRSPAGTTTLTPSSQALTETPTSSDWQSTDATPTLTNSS
Chain of MAST3 (O60307 whole entry): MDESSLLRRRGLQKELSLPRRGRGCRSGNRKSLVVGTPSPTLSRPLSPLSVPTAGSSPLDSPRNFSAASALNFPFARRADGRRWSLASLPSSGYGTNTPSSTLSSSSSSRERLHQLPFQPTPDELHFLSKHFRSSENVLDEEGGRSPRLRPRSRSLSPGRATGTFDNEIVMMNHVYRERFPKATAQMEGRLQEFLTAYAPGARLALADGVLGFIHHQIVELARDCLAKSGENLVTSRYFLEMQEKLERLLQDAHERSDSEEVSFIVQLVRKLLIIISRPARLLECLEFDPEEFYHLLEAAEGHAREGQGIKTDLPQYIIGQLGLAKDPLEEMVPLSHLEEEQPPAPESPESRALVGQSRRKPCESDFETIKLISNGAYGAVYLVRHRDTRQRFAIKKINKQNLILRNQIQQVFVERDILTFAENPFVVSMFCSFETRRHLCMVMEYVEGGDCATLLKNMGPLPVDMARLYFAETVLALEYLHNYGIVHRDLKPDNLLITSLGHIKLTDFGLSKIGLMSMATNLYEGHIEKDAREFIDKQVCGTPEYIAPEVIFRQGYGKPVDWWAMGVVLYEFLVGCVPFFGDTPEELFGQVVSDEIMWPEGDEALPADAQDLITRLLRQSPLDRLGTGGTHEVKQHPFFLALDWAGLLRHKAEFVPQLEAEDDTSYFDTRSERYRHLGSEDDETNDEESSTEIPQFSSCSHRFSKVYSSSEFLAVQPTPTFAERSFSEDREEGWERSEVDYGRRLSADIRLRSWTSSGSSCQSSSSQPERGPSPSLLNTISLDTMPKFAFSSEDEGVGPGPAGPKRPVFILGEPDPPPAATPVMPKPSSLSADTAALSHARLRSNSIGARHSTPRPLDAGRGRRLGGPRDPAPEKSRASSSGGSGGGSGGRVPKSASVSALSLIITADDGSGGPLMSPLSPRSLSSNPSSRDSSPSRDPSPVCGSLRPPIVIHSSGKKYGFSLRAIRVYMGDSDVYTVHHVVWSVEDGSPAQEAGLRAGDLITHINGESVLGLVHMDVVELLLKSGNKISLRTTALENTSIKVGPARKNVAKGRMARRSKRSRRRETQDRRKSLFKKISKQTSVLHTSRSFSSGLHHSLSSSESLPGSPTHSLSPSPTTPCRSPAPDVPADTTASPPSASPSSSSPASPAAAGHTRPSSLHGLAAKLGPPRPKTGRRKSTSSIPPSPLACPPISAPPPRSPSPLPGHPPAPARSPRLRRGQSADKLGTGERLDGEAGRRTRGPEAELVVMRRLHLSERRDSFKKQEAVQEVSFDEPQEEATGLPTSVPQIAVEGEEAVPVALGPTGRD
Chain of UniProt Q92918 (Q92918 whole entry, looked up): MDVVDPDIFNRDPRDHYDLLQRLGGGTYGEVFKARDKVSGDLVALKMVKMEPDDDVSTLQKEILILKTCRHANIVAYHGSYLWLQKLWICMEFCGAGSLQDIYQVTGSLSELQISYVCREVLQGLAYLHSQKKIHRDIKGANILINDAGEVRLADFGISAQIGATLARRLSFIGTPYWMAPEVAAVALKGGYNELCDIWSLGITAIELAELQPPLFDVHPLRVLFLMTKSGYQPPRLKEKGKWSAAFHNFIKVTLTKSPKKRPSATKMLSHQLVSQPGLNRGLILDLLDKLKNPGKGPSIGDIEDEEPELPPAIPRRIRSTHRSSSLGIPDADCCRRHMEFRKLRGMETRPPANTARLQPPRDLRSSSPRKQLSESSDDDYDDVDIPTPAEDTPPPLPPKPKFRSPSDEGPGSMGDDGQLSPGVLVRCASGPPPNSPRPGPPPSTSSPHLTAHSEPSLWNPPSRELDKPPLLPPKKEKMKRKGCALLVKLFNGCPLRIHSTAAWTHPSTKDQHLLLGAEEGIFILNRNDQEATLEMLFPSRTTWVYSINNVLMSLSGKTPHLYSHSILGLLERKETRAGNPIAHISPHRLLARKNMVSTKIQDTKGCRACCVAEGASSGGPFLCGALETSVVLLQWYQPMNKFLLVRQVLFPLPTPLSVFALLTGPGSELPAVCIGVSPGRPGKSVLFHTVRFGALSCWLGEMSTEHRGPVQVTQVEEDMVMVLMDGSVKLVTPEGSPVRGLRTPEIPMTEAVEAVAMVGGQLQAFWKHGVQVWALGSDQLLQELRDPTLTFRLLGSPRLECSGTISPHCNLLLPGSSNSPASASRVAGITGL
Chain of UniProt P49841 (P49841 whole entry, looked up): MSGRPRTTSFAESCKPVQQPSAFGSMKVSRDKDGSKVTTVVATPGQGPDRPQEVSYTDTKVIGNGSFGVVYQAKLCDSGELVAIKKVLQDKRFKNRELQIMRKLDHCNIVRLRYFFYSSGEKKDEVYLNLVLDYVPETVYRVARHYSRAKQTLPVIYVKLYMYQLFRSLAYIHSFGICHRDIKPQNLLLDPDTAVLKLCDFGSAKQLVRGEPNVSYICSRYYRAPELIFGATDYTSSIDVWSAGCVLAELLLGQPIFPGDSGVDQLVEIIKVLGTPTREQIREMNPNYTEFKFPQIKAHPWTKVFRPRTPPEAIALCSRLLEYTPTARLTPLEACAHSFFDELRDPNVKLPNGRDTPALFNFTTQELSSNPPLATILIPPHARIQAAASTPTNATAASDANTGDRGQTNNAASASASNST
Chain of SLK (Q9H2G2 whole entry, looked up): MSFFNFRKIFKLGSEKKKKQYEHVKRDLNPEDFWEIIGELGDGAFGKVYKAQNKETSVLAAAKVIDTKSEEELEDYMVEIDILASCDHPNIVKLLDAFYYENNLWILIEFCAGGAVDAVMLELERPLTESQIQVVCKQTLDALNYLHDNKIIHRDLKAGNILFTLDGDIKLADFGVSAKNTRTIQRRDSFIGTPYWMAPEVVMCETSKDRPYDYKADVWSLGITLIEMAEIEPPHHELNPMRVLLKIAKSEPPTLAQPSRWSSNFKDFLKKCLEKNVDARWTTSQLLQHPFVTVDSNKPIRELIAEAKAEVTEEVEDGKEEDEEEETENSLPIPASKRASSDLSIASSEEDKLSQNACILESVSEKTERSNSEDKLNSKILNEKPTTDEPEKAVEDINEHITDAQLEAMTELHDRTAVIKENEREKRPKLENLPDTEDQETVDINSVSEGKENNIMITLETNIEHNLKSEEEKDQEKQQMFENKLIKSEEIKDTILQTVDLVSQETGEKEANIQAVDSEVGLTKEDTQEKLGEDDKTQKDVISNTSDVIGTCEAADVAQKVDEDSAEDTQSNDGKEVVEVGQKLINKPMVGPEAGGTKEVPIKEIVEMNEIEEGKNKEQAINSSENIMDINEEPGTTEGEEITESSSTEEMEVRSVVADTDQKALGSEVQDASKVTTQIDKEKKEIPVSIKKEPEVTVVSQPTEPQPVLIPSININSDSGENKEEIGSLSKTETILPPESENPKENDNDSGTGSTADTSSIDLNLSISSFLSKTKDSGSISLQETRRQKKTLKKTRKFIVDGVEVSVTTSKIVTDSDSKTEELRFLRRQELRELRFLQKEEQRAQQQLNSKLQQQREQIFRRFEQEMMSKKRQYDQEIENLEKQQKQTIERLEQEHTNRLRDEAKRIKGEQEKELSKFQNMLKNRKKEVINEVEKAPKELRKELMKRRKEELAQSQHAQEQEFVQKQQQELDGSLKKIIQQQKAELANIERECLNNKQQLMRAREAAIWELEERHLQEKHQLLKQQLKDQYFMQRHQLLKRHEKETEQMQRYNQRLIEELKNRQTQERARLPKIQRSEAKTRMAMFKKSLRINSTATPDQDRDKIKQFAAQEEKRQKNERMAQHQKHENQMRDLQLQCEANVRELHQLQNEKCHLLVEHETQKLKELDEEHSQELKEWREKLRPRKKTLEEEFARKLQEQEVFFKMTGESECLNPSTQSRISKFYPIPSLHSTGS

As a reminder, the pIC50 is the IC50 on a negative log10 scale, so that one unit is a factor of ten. The low end stands for a high IC50, the high end for a low IC50. Consider `CCc1cnn2c(NCc3ccc[n+]([O-])c3)cc(N3CCCC[C@H]3CCO)nc12` [dinaciclib], for which the pIC50 at BLK was < 4.52; at UniProt P49841 it was 4.85 ± 0.27; on PXMP2, < 4.52; on UniProt Q9Y6E0 it was < 4.52; on UniProt Q13188, < 4.52; on UniProt P28482, < 4.52. The pIC50 on CLK3, at CASP6, on MAST3, on SLK and at UniProt Q92918 was < 4.52 in each case.
For `CC#CC(=O)Nc1ccc2ncnc(Nc3cccc(Br)c3)c2c1` [EKI-785], the negative-log IC50 (pIC50) at CDK2, at UniProt P49840, at CAMK1D, on CDK4 and at MAP4K2 was < 4.52 each time.

For the origin of these results see the supplement of paper PMC12076712.
